Data taken from patent US8445190B2, “Method of inhibiting biomaterial-induced procoagulant activity using complement inhibitors” (The Trustees of the University of Pennsylvania, priority 2008, dated 2013).
Where no end group is shown, it is not given here.

Columns and labels:
[1] = tested on: complement activation (C3b); assay: hemodialysis simulation with whole blood: ELISA of C3 cleavage products (C3-9 mAb) in plasma; format: biochemical, human; conditions: in words; 40 uM in whole blood circuit; FIG. 7A
Source text: (§1) FIG. 7. Complement activation during hemodialysis simulation is reduced or prevented by a compstatin analog. […] A: ELISA detection of complement activation fragment C3b using a C3-9 mAB. B: Detection of cellular cascade activation by flow cytometry after surface staining of blood neutrophils for CD11b. C: Detection of coagulation cascade activation by flow cytometry after intracellular staining of blood neutrophils for tissue factor (TF).
(§2) Whole blood was collected from healthy volunteers. […] All experiments were started within 30 min after blood collection.
(§3) To minimize the blood volume needed, HPH Junior polysulfone dialyzers (Minntech Corporation) were used. Standard bloodline components served as tubing system (Arterial & venous blood lines, Set a/v for Fresenius 2008/4008, HMC Premedical S.p.A., Italy). […]
(§4) To examine the activation of crucial pathways involved in the interaction of blood with the artificial surface of the dialyzer, complement, coagulation and neutrophil activation were analyzed. Briefly, complement activation was measured in plasma using a monoclonal antibody C3-9 (2 ug/ml), which recognizes a neoantigen that is exposed in C3(H2O), C3b and C3c but not in native C3. Neutrophil activation was assessed using flow cytometry after surface staining of CD11b (PE Mouse Anti-human CD11b/Mac-1, Cat. No 555388, BD Pharmigen). […]

[2] = tested on: CD11b on blood neutrophils; assay: hemodialysis simulation with whole blood: flow cytometry of CD11b on blood neutrophils; format: cell-based, human; conditions: in words; 40 uM in whole blood circuit; FIG. 7B
Source text: as §1, §2, §3, §4

[3] = tested on: tissue factor (TF) in blood neutrophils; assay: hemodialysis simulation with whole blood: flow cytometry of intracellular tissue factor in blood neutrophils; format: cell-based, human; conditions: in words; 40 uM in whole blood circuit; FIG. 7C
Source text: as §1, §2, §3, §4

[4] = tested on: TF-dependent procoagulant activity of PMN culture supernatants; assay: modified prothrombin time (mPT) of supernatants of healthy PMNs incubated with ESRD hemodialysis serum; format: cell-based, human; conditions: for mPT values: FIG. 4A; for effect on procoagulant activity (mPT) induced by ESRD serum in PMN supernatants: in words, FIG. 1A / FIG. 4A
Source text: (§5) Complement and anaphylatoxin inhibition studies. I) Compstatin, a 13-residue cyclic peptide (Ac-I[CVWQDWGAHRTC]TNH2) that inhibits the cleavage of native C3 by the C3 convertase, was used as a specific inhibitor of complement activation at the C3 level. In certain studies, a compstatin analog (1-methyl tryptophan as the 4th residue) was used. […] II) SB-290152, a selective nonpeptide antagonist of the complement anaphylatoxin receptor C3aR, was used in this study to dissect the involvement of C3aR signalling in the generation of neutrophil derived TF [27]. III) To block C5aR stimulation on neutrophils, a small cyclic hexapeptide (AcF-[OPdChaWR]) that acts as a selective C5aR antagonist was used. Sera were pre-incubated for 30 min with Compstatin or its linear analogue (15 μM final concentration), before incubation with leukocytes. Furthermore, serum for stimulation was added to leukocytes that had been pre-incubated for 30 min with C3aRa or C5aRa (5-10 μM final concentration). Approximately […] washed cells from healthy donors were used for the subsequent incubations, The final volume was adjusted with PBS at 250 μl and the leukocytes were incubated for 90-120 min at 37° C.
Modified prothrombin time (mPT) assay to examine TF mediated coagulation activity in cell supernatants, complement inhibition and anaphylatoxin receptor studies. Since it has been shown previously that TF dependent procoagulant activity in leukocyte culture supernatants is altered after C5a/C5aR stimulation or blockade, the mPT method was used in order to estimate primarily the kinetics of TF induction. The presence of TF in supernatants is probably due to the presence of the soluble, spliced TF isoform or TF microparticles.
At the end of the incubation period, supernatants of cells were collected by centrifugation at 800 g for 10 min and were checked a second time to confirm the absence of cells and platelets. The coagulation activity properties (TF/FVIIa binding activity) of the cell supernatants were determined using a modified prothrombin time (mPT) assay. Briefly, after performing the “classic” PT test (100 μl platelet poor plasma [PPP] plus 200 μl thromboplastin ISI 1.7 (Instrumentation Laboratory, Milan, Italy), the modified PT analysis was carried out. Namely, 125 μl of cell supernatant and 75 μl thromboplastin were added to 100 μl of PPP to measure the changes of PT. As control of mPT, 125 μl of PBS was used instead of cell supernatant and the in vitro clotting time usually ranged from 31 to 34 sec.
To verify that the thromboplastic activity was due to TF alone, supernatants were incubated for 30 min with a specific neutralizing anti-TF monoclonal antibody (mAb, No 4509, American Diagnostica, Greenwich, Conn., USA), 10 μg/ml, at room temperature. PT was then measured by the mPT method. Non-specific controls involved incubation with the same subclass and concentration of mouse anti-human antibodies, as well as with different secondary antibodies.
Serum of ESRD patients exerts procoagulant activity through TF induction and follows a time dependent manner during the hemodialysis course. […] The procoagulant activity of the above cell culture supernatants was measured using the mPT method.

[5] = tested on: TF mRNA expression in PMNs; assay: real time RT-PCR of TF mRNA in PMNs incubated with activated ESRD serum; format: cell-based, human; conditions: FIG. 4B
Procedure: 4: Involvement of the complement pathway in the procoagulant properties of ESRD serum. […] In contrast, both a selective C3aR antagonist (10 μM-30 min) and a non-active linear analogue of compstatin had no effect on mPT values (bars 6, 7: 22.99±0.26 and 24.16±0.23, respectively; p: n.s. vs. bar 3).
as §5
RNA extraction, RT & relative quantitative real-time PCR analysis. […] In order to quantify the relative expression level of the two TF isoforms with coagulant properties [(full-length TF (referred to hereafter as ‘TF’) and alternative spliced TF (asTF)], isoform specific real-time PCR was performed. In each sample TF, asTF and GAPDH mRNA sequence-specific primers and probes for detection were applied. The 2^−DDCT method was used for quantification of the target gene expression.

[6] = tested on: TF-dependent procoagulant activity of PMN culture supernatants; assay: mPT of PMN supernatants after incubation with serum preincubated with polysulfone hemodialysis filter fibers; format: cell-based, human; conditions: for mPT: FIG. 5C
Procedure: (§6) FIG. 5: Hemodialysis filter fibers induce in vitro TF dependent procoagulant properties in both ESRD and healthy serum through complement activation. […] C3b generation was detected by […]. CVF-activated plasma was used as a standard for 100% complement activation. The percentage of complement activation is depicted in the diagram. B: Serum from healthy donors was preincubated with hollow fibers from polysulfone hemodialysis filters at different time periods (10, 30, 60 & 120 min). PMNs were incubated with the pretreated serum and their supernatants were assayed for TF with mPT. A time-dependent procoagulant activity was observed (bar 2: 28.06±0.21, 3: 27.32±0.39, 4: 25.65±0.78, 5: 24.67±0.47, p<0.01 compared to bar 1: 31.81±0.28), which was blocked by the addition of anti-TF mAb in supernatants showing the highest procoagulant effect (bar 6: 31.49±0.12, p<0.05 compared to bar 5). C: Predialysis ESRD serum preincubated for 60 min with filter fibers, induced stronger procoagulant activity in PMN culture supernatants compared to when healthy serum was used (bars 3: 25.65±0.78, 6: 20.06±0.35, p<0.01 compared to bars 1: 33.12±0.25, 2: 29.07±0.33, respectively). Inhibitions with compstatin or C5aR antagonist, in both pre-treated sera, elucidated that the observed TF-dependent procoagulant activity was complement mediated (bars 4: 29.60±0.57, 5: 29.15±0.49 & 7: 26.85±0.21, 8: 26.05±0.35, p<0.01 compared to bars 3 and 6, respectively).
Complement and anaphylatoxin inhibition studies. I) Compstatin, a 13-residue cyclic peptide (Ac-I[CVWQDWGAHRTC]TNH2) that inhibits the cleavage of native C3 by the C3 convertase, was used as a specific inhibitor of complement activation at the C3 level. […]
At the end of the incubation period, supernatants of cells were collected by centrifugation at 800 g for 10 min and were checked a second time to confirm the absence of cells and platelets. The coagulation activity properties (TF/FVIIa binding activity) of the cell supernatants were determined using a modified prothrombin time (mPT) assay. […]

[7] = tested on: complement activation (C3b generation); assay: C3b generation ELISA in plasma incubated with hemodialysis filter fibers; format: biochemical; conditions: in words; FIG. 5A; plasma with 15 mg fibers, over time, two concentrations
Procedure: as §6, with “Inhibitions with compstatin or C5aR antagonist, in both pre-treated sera, elucidated that the observed TF-dependent procoagulant activity was complement mediated (bars 4: 29.60±0.57, 5: 29.15±0.49 & 7: 26.85±0.21, 8: 26.05±0.35, p<0.01 compared to bars 3 and 6, respectively).” left out

[8] = PMNs preincubated with receptor antagonist (10 μM-30 min), then ESRD serum of 15 to 30 min of hemodialysis, no antagonist bar 3: 22.96±0.22, control bar 1: 31.96±0.21

I[CV^(1−Me)WQDWGAHRC]I—NH2 [compstatin analog 4[1MeW]]
effect on time-dependent complement activation (C3 cleavage products in plasma) [1]: abrogated this activation
effect on cellular activation (CD11b surface staining of neutrophils) [2]: attenuated
effect on coagulation cascade activation (intracellular TF in neutrophils) [3]: attenuated

Acetyl-Phe-[Orn-Pro-D-cyclohexylalanine-Trp-Arg] (FXPXWR; non-natural residues; cyclised or stapled) [C5aR antagonist]
mPT values [4, 8]: 31.65±0.28
effect on procoagulant activity (mPT) induced by ESRD serum in PMN supernatants [4]: abrogated the observed procoagulant activity
average DCt of TF mRNA ([5]; PMNs incubated with activated serum bar 1: 7.92±0.29): 9.02±0.62
fold decrease of TF mRNA expression ([5]; vs. PMNs incubated with activated serum (bar 1)): 2.14 fold
effect on TF expression in PMNs (2^−DDCT analysis) ([5]; in words): inhibited the stimulation effect
mPT ([6]; healthy serum preincubated 60 min with filter fibers, without inhibitor bar 3: 25.65±0.78): 29.15±0.49
mPT ([6]; predialysis ESRD serum preincubated 60 min with filter fibers, without inhibitor bar 6: 20.06±0.35): 26.05±0.35

NC(N)=NCCC[C@H](NC(=O)COCC(c1ccccc1)c1ccccc1)C(=O)O [C3aR antagonist, SB-290152]
mPT values [4, 8]: 22.99±0.26
effect on procoagulant activity (mPT) induced by ESRD serum in PMN supernatants [4]: did not affect the mPT values
effect on procoagulant activity induced by filter-fiber treated serum in neutrophil supernatants ([6]; in words, FIG. 5B/5C): no effect on the procoagulant activity

IAVWQDWGAHRTAT-NH2 [non-active linear analogue of compstatin, reference compound]
mPT values ([4]; ESRD serum taken at 15 to 30 min of hemodialysis treated with peptide (15 μM-30 min), healthy donor's PMNs (N=6), untreated serum bar 3: 22.96±0.22, control bar 1: 31.96±0.21): 24.16±0.23
inhibition of complement activation induced by hemodialysis biomaterials (C3b generation) [7]: not inhibited
